# Results taken from patent US9795588B2, “Mammalian TOR inhibitor” (Chang Gung University, priority 2016, dated 2017).
# Legend:
# [1] = tested on: Mouse adipocytes (3T3-L1); assay: Adipocyte differentiation, oil-red O staining; assay type: cell-based; details: 3T3-L1 co-treated with DMI, 8 days, FIG. 6
# Experimental: Mouse adipocytes (3T3-L1) were co-treated with DMI (5 μM of dexamethasone, 0.5 mM of 3-isobutyl-1-methylxanthine, and 0.1724 mM of insulin) and different chemicals. After being cultured for 8 days, the cell media was removed and oil-red O staining was used to analyze these adipocytes' differentiation.
# [2] = tested on: S6K phosphorylation caused by insulin; assay: Insulin-induced S6K phosphorylation by Western blotting; assay type: cell-based; details: human osteosarcoma cells, 400 nM insulin, 10 minutes; FIG. 7
# Experimental: High concentration insulin can cause phosphorylation and thus cells are resistant to insulin, which is one cause for type II diabetes. In order to mimic type II diabetes, human osteosarcoma cells were cultured in 400 nM of insulin and different chemicals for 10 minutes. After which, Western blotting assay was used to analyze the protein in these cells.
# ICAM-1 expression = assay: Lipopolysaccharide-induced ICAM-1 expression by Western blotting in HASMC; assay type: cell-based, human; details: corylin 24 hours then lipopolysaccharide 24 hours, FIG. 8
# Experimental: Lipopolysaccharide can induce immune response on blood vessels. During immune response, blood vessels can also overexpress ICAM-1, which is one cause of cardiovascular disease. To mimic this disease, human aortic smooth muscle cells (HASMC) were treated with corylin in different concentrations and then cultured for 24 hours. After these cells were treated with lipopolysaccharide for 24 hours, the protein in these cells was extracted and analyzed by Western blotting assay.
# [3] = tested on: human umbilical vein endothelial cells (HUVEC); assay: SA-βgal cellular aging assay in HUVEC; assay type: cell-based; details: corylin in different concentrations, successive generations, FIG. 3
# Experimental: In addition, human umbilical vein endothelial cells (HUVEC) were treated with corylin in different concentrations, and the cells at this moment were called first generation cells. Second generation cells grew by culturing the first generation cells for 2-3 days, and then the second generation cells were treated with corylin in different concentrations. Third to Nth generation cells grew by repeating the culturing process. During each culture process, SA-βgal assay was used to analyze the responding generation cells. The more SA-βgal positive cells the cultured cells contained, the older the cultured cells were.
# [4] = tested on: Male C57BL/6 mice on high-fat diet; assay: High-fat diet mice: body, liver and white adipocytes tissue weights; assay type: in vivo, mouse; details: HFD mice, gavage 100 mg/kg, end of treatment
# Experimental: (§1) Male C57BL/6 mice (8 weeks old) were purchased from the National Laboratory Animal Center. Mice were divided into three groups (n=6 each group): chow diet; high-fat diet (HFD, 60% ResearchDiet, D12492); and HFD gavage with corylin at 100 mg/kg. To compare the metabolic effects of corylin, parameters such as body weights, liver weights and white adipocytes tissue (WAT) weights from epididymal, inguinal and axilla subcutaneous were measured at the end of the treatment.
# S6K phosphorylation = S6K phosphorylation by Western blotting in U2OS cells; assay type: cell-based, human; details: 8 hours
# Experimental: Human osteosarcoma (U2OS) cells were treated with different chemicals in different concentrations. After the cells were cultured for 8 hours, the protein therein was extracted. Finally, Western blotting assay was used to analyze the extracted protein. […] Moreover, human osteosarcoma cells were pre-treated with mammalian SIRT1 inhibitor EX-527 for 1 hour. Afterwards, those cells were treated with 100 μM corylin and cultured for 8 hours. Finally, Western blotting assay was used to analyze the protein extracted from those cells.
# [5] = tested on: Male C57BL/6 mice on high-fat diet; assay: Insulin tolerance testing in mice; assay type: in vivo, mouse; details: mice fasted 3 hours, 1.2 U/kg insulin, 0-120 min; FIG. 13
# Experimental: as §1, with “treatment. […] For intraperitoneal glucose tolerance testing, mice were fasted for 16 hours and then injected with 2 g/kg of glucose solution. For insulin tolerance testing, mice were fasted for 3 hours and then injected with 1.2 U/kg insulin. Serum blood glucose levels were measured at 0, 15, 30, 60, 90, and 120 min after glucose and insulin injection.” for “treatment.”
# yeast cells = assay: Replicative life span of yeast cells (passage number); assay type: cell-based; details: YEPD media, 30° C.; FIG. 2
# Experimental: A yeast colony was selected and cultured in a YEPD culture media. When the OD value of the media was at 0.6-0.8, 20 μl of the media containing different chemicals was added to a YEPD solid media, and then 20-30 yeast cells were selected using a tetrad dissection microscope manipulation system. The selected yeast cells were cultured at 30° C. for 3-5 hours to divide into first generation yeast cells. Afterwards, the first generation yeast cells were cultured at 30° C. for 3-5 hours to divide into second generation yeast cells. The culturing step was repeated until final generation yeast cells which cannot divide anymore existed. Finally, the yeast cells' passage number was counted according to the total division number.
# [6] = tested on: Male C57BL/6 mice on high-fat diet; assay: Intraperitoneal glucose tolerance testing in mice; assay type: in vivo, mouse; details: mice fasted 16 hours, 2 g/kg glucose, 0-120 min; FIG. 12
# Experimental: as §1, with “treatment. […] For intraperitoneal glucose tolerance testing, mice were fasted for 16 hours and then injected with 2 g/kg of glucose solution. For insulin tolerance testing, mice were fasted for 3 hours and then injected with 1.2 U/kg insulin. Serum blood glucose levels were measured at 0, 15, 30, 60, 90, and 120 min after glucose and insulin injection.” for “treatment.”
Compound,inhibition of adipocytes' differentiation [1],S6K phosphorylation caused by insulin [2],ICAM-1 expression caused by lipopolysaccharide (ICAM-1 expression),cells' aging (SA-βgal positive cells) [3],body weight ([4]; FIG. 9),liver weight ([4]; FIG. 10),"interference of SIRT1 inhibitor EX-527 with corylin's effect on S6K phosphorylation (S6K phosphorylation; U2OS cells pre-treated with EX-527 for 1 hour, then 100 μM corylin, FIG. 5)","S6K phosphorylation (S6K phosphorylation; U2OS cells, different concentrations, FIG. 4)",insulin tolerance (serum blood glucose) [5],yeast cells' passage number (replicative life span) (yeast cells),intraperitoneal glucose tolerance (serum blood glucose) [6]
"Oc1ccc(C=Cc2cc(O)cc(O)c2)cc1 [resveratrol, reference compound]",inhibition of adipocytes' differentiation,,,,,,,,,,
corylin,more obvious than that caused by resveratrol,can suppress such phosphorylation caused by insulin,can inhibit ICAM-1 expression caused by lipopolysaccharide,can inhibit the cells' aging in dose-dependent manner,has an effect on the reduction of body weight,has an effect on the reduction of,cannot interfere with the S6K phosphorylation caused by corylin,can suppress S6K phosphorylation in dose-dependent manner,can lower,can increase yeast cells' passage number,can lower intraperitoneal glucose tolerance
